The experiment addresses T1, DDX39B (Homo sapiens, UniProt Q13838).
T1 construct: His-DDX39B
As to the kind of experiment: SPR (KD […]); also BLI with biotinylated His-DDX39B (KD […]) and CETSA in NSCLC cells. Format: binding.

The structures appear in SMILES notation.

As a reminder, the Kd is the concentration at which binding is half-saturated.

T1 sequence (Q13838 2-428): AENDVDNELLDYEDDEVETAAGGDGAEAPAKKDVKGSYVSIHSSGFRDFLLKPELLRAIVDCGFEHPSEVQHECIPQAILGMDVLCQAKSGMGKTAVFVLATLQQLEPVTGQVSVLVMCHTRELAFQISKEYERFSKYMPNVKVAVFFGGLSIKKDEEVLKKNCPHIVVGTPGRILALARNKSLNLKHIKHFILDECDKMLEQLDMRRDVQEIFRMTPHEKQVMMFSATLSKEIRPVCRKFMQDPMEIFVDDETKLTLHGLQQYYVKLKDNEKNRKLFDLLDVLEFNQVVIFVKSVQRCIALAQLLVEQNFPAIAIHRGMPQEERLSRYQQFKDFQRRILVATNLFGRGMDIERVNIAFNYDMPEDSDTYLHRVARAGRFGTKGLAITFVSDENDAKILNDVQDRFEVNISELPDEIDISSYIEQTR

With `C[C@H]1[C@H](OC(=O)CCC(=O)O)O[C@@H]2O[C@@]3(C)CC[C@H]4[C@H](C)CC[C@@H]1[C@@]24OO3` [artesunate], the equilibrium dissociation constant (Kd) is 3.23 µM.

Values taken from article PMC12263876, “DDX39B K63-linked ubiquitination mediated by TRIM28 promotes NSCLC metastasis by enhancing ECAD lysosomal degradation” (Signal Transduction and Targeted Therapy, 2025).
